The values below come from patent publication US20070014727A1, “Contrast media for nuclear spin tomography with use of the overhauser effect” (priority 2005, published 2007).

What all share (format): physicochemical
Data set [1] can be described thus: EPR measurement of oxygen sensitivity (EPR line widening after flushing with oxygen). To be noted: for widening of the EPR line after the solution is flushed with oxygen: in toluene, reversible.
The nature of data set [2]: Electron spin relaxation times by pulsed spin-echo EPR (X-band) and CW EPR line widths (L-band) in liquid solution. The settings on record: pulsed spin-echo EPR in X-band (9.5 GHz), CW EPR line widths in L-band (1.1 GHz). The text has this:
The substance N@C63(COOH)6 (III) according to the invention has long spin-relaxation times of the unpaired electron. It was possible to measure very long electronic relaxation times T1e≅150 μs and T2e≅22 μs in liquid solution, which are longer by at least one order of magnitude than that of the […], (see FIG. 4) with pulsed spin-echo EPR measurements in X-band (9.5 GHz EPR larmor frequency) and from CW EPR line widths in the L-band (1.1 GHz of EPR larmor frequency). From [ii] Table 3, page 8, in isotonic NaCl solution at 37° C.: “predeuterated trityl”: T1e≅13 μs, T2e≅8 μs; “deuterated hydroxy trityl”: T1e≅11 μs, T2e≅8 μs, “symmetrical trityl”: T1e≅9 μs, T2e≅9 μs.

Data set [3] is described as follows: Relaxometric measurement of proton relaxivity. To be noted: aqueous solution, spin concentration 6 μm, 37° C., about 15 mT (600 kHz). As for the experimental part: Substance (III) has a relaxivity r1≅47 mM^−1s^−1 (compared to the trityl derivatives with relaxivity values of between 0.14 mM^−1s^−1 and 0.44 mM^−1s^−1 [ii], and [iii]) in aqueous solution with a spin concentration of 6 μm at a solvent temperature of 37° C. This unexpectedly high value is present at a magnetic field strength of about 15 mT, which corresponds to a radiofrequency of 600 kHz and thus to the conditions of very low magnetic field strength that are necessary for OMRI.

As for P@C60 [IX], in data set [1], the oxygen-sensitivity result was “elevated” and the “widening of the EPR line after the solution is flushed with oxygen” value was 20 ×.
On the same counts, the results for N@C60 [I] are “low” and “does not occur”.
As to N@C63 (COONa)6 [III], in data set [2], the “electronic relaxation time T1e” value is on record as roughly 150 μs and the “electronic relaxation time T2e” value is recorded as roughly 22 μs. For the same substance, in data set [3], the “relaxivity r1” value is roughly 47 mM⁻¹ s⁻¹.
